In PMC11435058, “Synthesis of New Thiazole-Privileged Chalcones as Tubulin Polymerization Inhibitors with Potential Anticancer Activities” (Pharmaceuticals, 2024):
pIC50: −log10 of the molar value.

Key:
[1] = tested on: MDA-MB-468; assay: NCI-60 anticancer screen (SRB; single dose and five doses); type: cell-based, human
Summary of the method: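 NCI panel of about 60 human tumor cell lines treated with compound at a single concentration (10μM) for 48 h. Growth measured by SRB protein staining and expressed as percent growth of treated versus untreated control cells.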

[2] = tested on: SNB-19; assay: cells; conditions: Homo sapiens
[3] = tested on: OVCAR-3; assay: cells; conditions: Homo sapiens
[4] = tested on: EKVX; assay: NCI-60 anticancer screen (SRB; single dose and five doses); conditions: Homo sapiens
[5] = tested on: NCI-H23; assay: as above; conditions: Homo sapiens
[6] = tested on: NCI-H460; assay: as above; conditions: Homo sapiens
[7] = tested on: NCI-H522; assay: as above; conditions: Homo sapiens
[8] = tested on: HCC-2998; assay: as above; conditions: Homo sapiens, HCC 2998, 48 h, read-out: Growth Percentage
[9] = tested on: HCT-116; assay: as above; conditions: Homo sapiens
[10] = tested on: SW-620; assay: as above; conditions: Homo sapiens
[11] = tested on: SF-539; assay: as above; conditions: Homo sapiens
[12] = tested on: SNB-75; assay: as above
[13] = tested on: U251; assay: as above; conditions: Homo sapiens
[14] = tested on: M14; assay: as above; conditions: Homo sapiens
[15] = tested on: MDA-MB-435; assay: as above; conditions: Homo sapiens
[16] = tested on: SK-MEL-28; assay: as above; conditions: Homo sapiens
[17] = tested on: OVCAR-4; assay: as above; conditions: Homo sapiens
[18] = tested on: OVCAR-8; assay: as above; conditions: Homo sapiens
[19] = tested on: SK-OV-3; assay: as above; conditions: Homo sapiens
[20] = tested on: 786-0; assay: as above; conditions: Homo sapiens
[21] = tested on: A498; assay: as above; conditions: Homo sapiens
[22] = tested on: ACHN; assay: as above; conditions: Homo sapiens
[23] = tested on: SN12C; assay: as above; conditions: Homo sapiens
[24] = tested on: TK-10; assay: as above; conditions: Homo sapiens
[25] = tested on: UO-31; assay: as above; conditions: Homo sapiens
[26] = 48 h, read-out: Growth Percentage

Cc1[nH]c(=S)sc1C(=O)/C=C/c1ccc(Cl)cc1 [2f, (E)-3-(4-Chlorophenyl)-1-(4-Methyl-2-Thioxo-2,3-Dihydrothiazol-5-yl)Prop-2-En-1-One]
activity at 10 µM ([1]; Homo sapiens, 48 h, MDA-MB-468, dose of 10 μM, read-out: Growth Percentage): -21.2%
pIC50 ([1]; Homo sapiens, MDA-MB-468, MDA-MB-468, Breast Cancer, five dose): 4.92
pIC50 ([1]; Homo sapiens, MDA-MB-468, MDA-MB-468, five doses): 5.60
GI50 ([1]; Homo sapiens, MDA-MB-468, Breast Cancer, five dose): 2.51 µM
CC50 ([1]; Homo sapiens, MDA-MB-468, Breast Cancer, five dose, read-out: LC50 (the source's name)): 30.2 µM
TGI ([1]; MDA-MB-468, Breast Cancer, five dose): 8.32 µM
GI50 ([2]; SNB-19): 12 µM
pIC50 ([2]; SNB-19): 4.65
activity at 10 µM ([2]; SNB-19, 48 h, read-out: Growth Percentage): 15.8%
CC50 ([2]; SNB-19, read-out: LC50): 50.1 µM
IC (TGI) ([2]; SNB-19, read-out: TGI): 24.6 µM
GI50 ([3]; OVCAR-3): 2.82 µM
activity at 10 µM ([3]; OVCAR-3, 48 h, read-out: Growth Percentage): -24.2%
pIC50 ([3]; OVCAR-3, OVCAR-3, five doses): 5.55
pIC50 ([3]; OVCAR-3, five-dose, Ovarian Cancer OVCAR-3): 5.19
CC50 ([3]; OVCAR-3, read-out: LC50): 33.1 µM
IC (TGI) ([3]; OVCAR-3, read-out: TGI): 10.7 µM
GI50 [4]: 12.9 µM
pIC50 [4]: 4.62
activity at 10 µM [4, 26]: 41%
CC50 ([4]; read-out: LC50): 52.5 µM
IC (TGI) ([4]; read-out: TGI): 26.3 µM
GI50 ([5]; NCI-H23): 14.8 µM
pIC50 ([5]; NCI-H23): 4.57
activity at 10 µM ([5]; NCI-H23, 48 h, read-out: Growth Percentage): 36.4%
CC50 ([5]; NCI-H23, read-out: LC50): 58.9 µM
IC (TGI) ([5]; NCI-H23, read-out: TGI): 29.5 µM
GI50 ([6]; NCI-H460): 12 µM
pIC50 ([6]; NCI-H460): 4.72
activity at 10 µM ([6]; NCI-H460, 48 h, read-out: Growth Percentage): 82.6%
CC50 ([6]; NCI-H460, read-out: LC50): 69.2 µM
IC (TGI) ([6]; NCI-H460, read-out: TGI): 28.8 µM
GI50 ([7]; NCI-H522): 11.8 µM
pIC50 ([7]; NCI-H522): 4.65
activity at 10 µM ([7]; NCI-H522, 48 h, read-out: Growth Percentage): 13.5%
CC50 ([7]; NCI-H522, read-out: LC50): 52.5 µM
IC (TGI) ([7]; NCI-H522, read-out: TGI): 25.1 µM
activity at 10 µM [8]: -21.3%
GI50 ([9]; HCT-116): 6.61 µM
pIC50 ([9]; HCT-116): 5.10
activity at 10 µM ([9]; HCT-116, 48 h, read-out: Growth Percentage): 6.98%
CC50 ([9]; HCT-116, read-out: LC50): 74.1 µM
IC (TGI) ([9]; HCT-116, read-out: TGI): 24.6 µM
GI50 ([10]; SW-620): 3.09 µM
pIC50 ([10]; SW-620): 5.36
activity at 10 µM ([10]; SW-620, 48 h, read-out: Growth Percentage): 8.02%
CC50 ([10]; SW-620, read-out: LC50): 38.9 µM
IC (TGI) ([10]; SW-620, read-out: TGI): 11.2 µM
GI50 ([11]; SF-539): 6.92 µM
pIC50 ([11]; SF-539): 4.79
activity at 10 µM ([11]; SF-539, 48 h, read-out: Growth Percentage): -30.4%
IC (TGI) ([11]; SF-539, read-out: TGI): 20.4 µM
GI50 ([12]; Homo sapiens, SNB-75): 2.19 µM
pIC50 ([12]; Homo sapiens, SNB-75): 5.07
CC50 ([12]; Homo sapiens, SNB-75, read-out: LC50): 28.8 µM
TGI ([12]; five-dose, CNS Cancer SNB-75): 6.76 µM
GI50 ([13]; U-251): 3.39 µM
pIC50 ([13]; U-251): 5.32
activity at 10 µM ([13]; U-251, 48 h, read-out: Growth Percentage): 11.3%
CC50 ([13]; U-251, read-out: LC50): 40.7 µM
IC (TGI) ([13]; U-251, read-out: TGI): 13.2 µM
GI50 ([14]; M14): 14.1 µM
pIC50 ([14]; M14): 4.61
activity at 10 µM ([14]; M14, 48 h, read-out: Growth Percentage): 34.4%
IC (TGI) ([14]; M14, read-out: TGI): 32.4 µM
GI50 ([15]; MDA-MB-435): 5.5 µM
pIC50 ([15]; MDA-MB-435): 4.96
activity at 10 µM ([15]; MDA-MB-435, 48 h, read-out: Growth Percentage): 22.5%
CC50 ([15]; MDA-MB-435, read-out: LC50): 49 µM
IC (TGI) ([15]; MDA-MB-435, read-out: TGI): 19.1 µM
GI50 ([16]; SK-MEL-28): 14.5 µM
pIC50 ([16]; SK-MEL-28): 4.58
activity at 10 µM ([16]; SK-MEL-28, 48 h, read-out: Growth Percentage): 45.7%
CC50 ([16]; SK-MEL-28, read-out: LC50): 53.7 µM
IC (TGI) ([16]; SK-MEL-28, read-out: TGI): 28.2 µM
GI50 ([17]; OVCAR-4): 13.8 µM
pIC50 ([17]; OVCAR-4): 4.60
activity at 10 µM ([17]; OVCAR-4, 48 h, read-out: Growth Percentage): 76.3%
CC50 ([17]; OVCAR-4, read-out: LC50): 55 µM
IC (TGI) ([17]; OVCAR-4, read-out: TGI): 27.5 µM
GI50 ([18]; OVCAR-8): 8.51 µM
pIC50 ([18]; OVCAR-8): 4.84
activity at 10 µM ([18]; OVCAR-8, 48 h, read-out: Growth Percentage): 4.96%
CC50 ([18]; OVCAR-8, read-out: LC50): 55 µM
IC (TGI) ([18]; OVCAR-8, read-out: TGI): 22.9 µM
GI50 ([19]; SK-OV-3): 15.8 µM
pIC50 ([19]; SK-OV-3): 4.52
activity at 10 µM ([19]; SK-OV-3, 48 h, read-out: Growth Percentage): 60.8%
CC50 ([19]; SK-OV-3, read-out: LC50): 66.1 µM
IC (TGI) ([19]; SK-OV-3, read-out: TGI): 32.4 µM
GI50 ([20]; 786-0): 4.68 µM
pIC50 ([20]; 786-0): 5.11
activity at 10 µM ([20]; 786-0, 48 h, read-out: Growth Percentage): 16.6%
CC50 ([20]; 786-0, read-out: LC50): 58.9 µM
IC (TGI) ([20]; 786-0, read-out: TGI): 20.4 µM
GI50 ([21]; A498): 15.8 µM
pIC50 ([21]; A498): 4.51
activity at 10 µM ([21]; A498, 48 h, read-out: Growth Percentage, A498, dose of 10 μM): 106%
CC50 ([21]; A498, read-out: LC50): 56.2 µM
IC (TGI) ([21]; A498, read-out: TGI): 29.5 µM
GI50 [22]: 13.8 µM
pIC50 [22]: 4.62
activity at 10 µM [22, 26]: 34.6%
CC50 ([22]; read-out: LC50): 51.3 µM
IC (TGI) ([22]; read-out: TGI): 26.9 µM
GI50 [23]: 4.9 µM
pIC50 [23]: 4.97
activity at 10 µM [23, 26]: 4.62%
CC50 ([23]; read-out: LC50): 43.6 µM
IC (TGI) ([23]; read-out: TGI): 18.2 µM
GI50 ([24]; TK-10): 15.1 µM
pIC50 ([24]; TK-10): 4.55
activity at 10 µM ([24]; TK-10, 48 h, read-out: Growth Percentage): 40.4%
CC50 ([24]; TK-10, read-out: LC50): 55 µM
IC (TGI) ([24]; TK-10, read-out: TGI): 28.8 µM
GI50 ([25]; UO-31): 4.07 µM
pIC50 ([25]; UO-31): 4.95
activity at 10 µM ([25]; UO-31, 48 h, read-out: Growth Percentage): 30.4%
IC (TGI) ([25]; UO-31, read-out: TGI): 18.2 µM
